Laboratory results: paper PMC11429909, “Protein Structure Inspired Discovery of a Novel Inducer of Anoikis in Human Melanoma” (Cancers, 2024)

Columns and labels:
Type in all cases: cell-based, human
NCI-60 cell lines = experiment: NCI-60 cell line screen; conditions: 48 h at 10 µM
Experimental: The above findings support the importance of Dxr2 and FolC2 sites, and of Dxr2-017 and FolC2-001 compounds, respectively. The NCI-60 cell line screen evaluates compound growth inhibition and cell toxicity in a highly standardized manner across 60 different cell lines. Dxr2-017 and FolC2-001 were evaluated in this assay (Figure S6). NCI-60 screens evaluate cells treated for 48 h at 10 µM with a given compound. […] Of high interest, in the NCI-60 screen, Dxr2-017 had relatively high activity against melanoma cell lines, inducing cell death in five cell lines ranging from 25% to 65%, and inhibiting growth in four cell lines ranging from 76% to 96%. Its impact on cell death represented the most striking relative difference in response across cell lines.

SK-MEL-5 = experiment: Eight-day colony formation assay, melanoma SK-MEL-5
Experimental: In addition to screens, eight-day colony formation assays were conducted for certain experiments, as denoted. When measuring the effect of 5-fluorouracil (5FU) on HT29 colon cancer cells, the following final 5FU concentrations were examined: 0 (DMSO only), 0.0012, 0.012, 0.12, 0.82, 5.7, 20, and 40 µM. When measuring the effect of Dxr2-017 on melanoma cell growth, the following concentrations were examined: 0 (DMSO only), 0.001, 0.01, 0.1, 1.0, and 10.0 µM. Melanoma studies were performed on M14 and SK-MEL-5 human melanoma cell lines. For each Dxr2-017 concentration for each cell line, there were N = 3 replicates, and experiments were performed a total of 3 separate times (each with N = 3 replicates). The IC50 values were calculated using nonlinear regression analysis. Data from individual experiments were log-transformed and fitted to a dose–response curve using the four-parameter logistic model of GraphPad Prism 10 software. The IC50 values were determined using the dose–response inhibition function. IC50 values from each of three different experiments were used to calculate mean ± SEM.

[1] = tested on: breast, prostate, colon, or lung cancer cell lines; experiment: Eight-day colony formation assays, summary across the cancer cell line panel; conditions: 8 days
Experimental: Initial colony formation screening assays were conducted on all acquired compounds and examined at five different compound concentrations. Those meeting efficacy criteria underwent a second-level screen examining nine different compound concentrations. Eight-day colony formation assays of cancer cells were performed as described by us. Briefly, 0.5–1.0 × 10^3 cells were seeded into each well of a 12-well plate. Twenty-four hours later, the compound was added at the following final concentrations: 0 (DMSO-only control), 0.017, 0.12, 0.82, 5.7, and 40 µM. For each concentration, there were N = 2 replicates, i.e., 2 wells. Eight days later, plates were stained with trypan blue, visualized under light microscopy, and groups of three or more cells were scored as colonies. The mean number of colonies was then determined and expressed as the percentage of controls. Second-level screens were performed on compounds inhibiting colony formation by greater than 50% at 40 µM in at least two cell lines. Second-level assays used the following final concentrations of compound: 0 (DMSO only), 0.0061, 0.018, 0.05, 0.16, 0.49, 1.48, 4.44, 13.33, and 40 µM. All compounds were stored under desiccated conditions in a sealed container at minus 20 °C upon arrival. One day prior to use, they were dissolved in DMSO, stored at minus 20 °C as stock solutions, thawed just prior to use, and not reused.
Human hematopoietic stem cell trilineage colony formation assays were performed as previously described by us. Briefly, human cord blood CD34+ cells (catalog #: 70008.5) were purchased from StemCell Technology Inc. and seeded at 1 × 10^4 cells per 35 mm dish. Cells were cultured in MethoCult™ Express (StemCell Technologies, Inc. (Vancouver, BC, Canada)) semisolid media, per the manufacturer’s instructions, in the presence of compound or vehicle (for controls). Compounds were added at final concentrations matching those used in the initial growth assay screens. At eight days, colonies (i.e., groups of ≥10 cells) were counted. At fourteen days, individual colonies of erythroid burst-forming units (BFU-E), colony-forming unit granulocyte–macrophage (CFU-GM), and colony-forming unit granulocyte, erythrocyte, monocyte, and megakaryocyte (CFU-GEMM) were identified based on the manufacturers’ morphologic characterization criteria. Assays were run in replicates of N = 2, and some were run in replicates of N = 4, as denoted. The mean number of colonies was then determined and expressed as the percentage of controls. The effect of each compound on inhibiting the growth of cancer cells relative to its toxic effects on normal bone marrow was evaluated. This was carried out by comparing colonies at 8 days for each cancer cell line to that of bone marrow. This information was used to calculate the efficacy ratio, as follows: efficacy ratio = (percent of remaining cancer cell colonies)/(percent of remaining bone marrow colonies). This was performed for all compounds at 40 µM and for selected compounds at 5.7 µM, as denoted. For compounds nominated for second-level screens, bone marrow colony formation assays were also repeated. Compounds were added at final concentrations matching those used in the initial screens.
We sought to identify compounds that would inhibit the growth of cancer cells, but that also did so selectively. Inhibition of cancer cell growth is a highly sought after attribute of anticancer agents. This was assessed by measuring the ability of a compound to inhibit cell growth in eight-day colony formation assays and examining concentrations ranging from 0.017 to 40 µM. Breast, colon, lung, and prostate cancer are four of the most common types of cancer in the United States, are major causes of cancer cell death, and were examined. […]

With `c1ccc2sc(-c3ccc(CNc4ccc5nnnn5n4)o3)nc2c1` [Dxr2-017] the “activity in the NCI-60 screen (in words)” value (NCI-60 cell lines) was “activity against HT29, MDA-MB-231, and H226”, the IC50 (SK-MEL-5; Homo sapiens, 192 h, SK-MEL-5 melanoma, mean ± SEM of three experiments) was 51 ± 11 nM and the “fold efficacy relative to bone marrow stem cells treated at 40 µM” value (SK-MEL-5; SK-MEL-5 IC50 versus eight-day bone marrow treatment at 40 µM) was greater than 750 fold. For the same compound, the “efficacy ratio, mean ± SEM over cell lines with ratio below 0.5” value ([1]; 5.7 µM) was 0.25 ± 0.091 and the “efficacy ratio, mean ± SEM over cell lines with ratio below 0.5” value ([1]; 40 µM) was 0.03 ± 0.01.
